The text below walks through data of patent publication US12421210B2, “Fused bicyclic heterocycles as therapeutic agents” (NEW YORK UNIVERSITY, priority 2018, dated 2025).

Chain of human NAMPT enzyme (His-hNAMPT) (P43490 whole entry): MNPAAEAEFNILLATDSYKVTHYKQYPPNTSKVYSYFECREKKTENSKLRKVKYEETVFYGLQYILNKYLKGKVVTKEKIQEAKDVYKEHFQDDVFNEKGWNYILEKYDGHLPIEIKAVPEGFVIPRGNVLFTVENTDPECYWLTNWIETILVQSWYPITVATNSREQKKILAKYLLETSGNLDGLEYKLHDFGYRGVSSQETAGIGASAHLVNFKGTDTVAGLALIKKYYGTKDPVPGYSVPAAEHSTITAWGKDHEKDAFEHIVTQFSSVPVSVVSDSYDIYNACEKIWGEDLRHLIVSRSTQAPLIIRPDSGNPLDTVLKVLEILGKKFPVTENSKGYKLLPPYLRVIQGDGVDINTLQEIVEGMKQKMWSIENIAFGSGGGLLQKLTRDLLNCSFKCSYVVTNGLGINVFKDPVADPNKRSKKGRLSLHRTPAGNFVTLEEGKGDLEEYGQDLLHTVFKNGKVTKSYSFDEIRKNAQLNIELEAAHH

In one test the target is human NAMPT enzyme (His-hNAMPT) (Homo sapiens (Human), UniProt P43490). The test can be described thus: NAMPT enzymatic inhibition assay (fluorescence, NADH product). The note with it: [BPS]; read-out: NAMPT IC50 (μM) [BPS]. Type of test: biochemical. The method, then:
The compounds were then diluted 20 fold in an intermediate dilution to 5% DMSO and water. Finally 10 μL of each compound was added to the assay plate, in duplicate, with highest concentration at 30 μM and the lowest at 0.001 μM in a final volume of 50 μL and 1% DMSO concentration. Each assay also tested, in parallel, two reference compounds, FK866 and GMX1778, with highest concentration at 10 μM and lowest at 0.0003 μM. 200 ng of human NAMPT enzyme (His-hNAMPT obtained from E. coli expression system) diluted in […] (tris-buffered saline-Polysorbate 20) 1× was added to each well in a volume of 10 μL and the compounds were incubated with the enzyme at room temperature for 20 minutes. After the incubation, 30 μL of master mixture were added to each well. The master mixture contained: 50 mM Tris-HCl, pH 8.0, 12.5 mM MgCl2, 20 μM nicotinamide, 40 μM phosphoribosyl pyrophosphate (PRPP), 20 μM adenosine triphosphate (ATP), 30 μg/mL of alcohol dehydrogenase, 10 μg/mL of NMNAT, 1.5% alcohol, 1 mM dithiothreitol (DTT), 0.02% bovine serum albumin (BSA), 0.01% Tween 20. The reaction was performed at 30° C. for 60 minutes. Fluorescence intensity was measured at an excitation of 340 nm and an emission of 460 nm using a Tecan Infinite M1000 microplate reader. The fluorescence values indicated increase of NADH product.
Enzyme activity assay was performed in duplicate at each concentration. The fluorescence data was analyzed and compared. In the absence of the compound, the intensity (Ce) in each data set was defined as 100% activity. In the absence of enzyme, the intensity (C0) in each data set was defined as 0% activity. The percent activity in the presence of each compound was calculated according to the following equation: % activity=(C−C0)/(Ce−C0), where C is the fluorescence in the presence of the compound.
The % activity vs. compound concentrations were then plotted using non-linear regression analysis of Sigmoidal dose-response curve generated with the equation Y=B+(T−B)/1+10^((Log EC50-X)×Hill Slope), where Y is percent activity, B is minimum percent activity, T is maximum percent activity, X is logarithm of compound and Hill Slope=slope factor or Hill coefficient.
As a reminder, the IC50 is the point on the concentration scale where inhibition reaches its midpoint. With `CC(C)(C)OC(=O)N1C[C@@H]2[C@@H](CCNC(=O)c3ccc4nccn4c3)[C@@H]2C1` [Example 7, (1R,5S,6s)-tert-butyl 6-(2-(imidazo[1,2-a]pyridine-6-carboxamido)ethyl)-3-azabicyclo[3.1.0]hexane-3-carboxylate], the IC50 lay within 0.01 to 0.49 µM.
Turning to `CC(C)(C)OC(=O)N1C[C@@H]2[C@@H](CCNC(=O)C(C)(C)C)[C@@H]2C1` [Example 8, (1R,5S,6s)-tert-butyl 6-(2-pivalamidoethyl)-3-azabicyclo[3.1.0]hexane-3-carboxylate], the IC50 is over 30 µM.
Still for that read-out and setting: then `CC(C)(C)OC(=O)N1C[C@@H]2[C@@H](CCNC(=O)[C@H]3C[C@@H]3c3cccnc3)[C@@H]2C1` [Example 10, (1R,5S,6s)-tert-butyl 6-(2-((1R,2R)-2-(pyridin-3-yl)cyclopropanecarbox-amido)ethyl)-3-azabicyclo[3.1.0]hexane-3-carboxylate], with 0.01 to 0.49 µM.
Consider `CC(C)(C)OC(=O)N1C[C@@H]2[C@@H](CCNC(=O)c3nc4ccncc4s3)[C@@H]2C1` [Example 11, (1R,5S,6s)-tert-butyl 6-(2-(thiazolo[5,4-c]pyridine-2-carboxamido)ethyl)-3-azabicyclo[3.1.0]hexane-3-carboxylate], for which the IC50 lay in the range of 0.5 to 0.99 µM.
Take `CC(C)(C)OC(=O)N1C[C@@H]2[C@@H](CCNC(=O)c3cc(-c4cccnc4)on3)[C@@H]2C1` [Example 12, (1R,5S,6s)-tert-butyl 6-(2-(5-(pyridin-3-yl)isoxazole-3-carboxamido)ethyl)-3-azabicyclo[3.1.0]hexane-3-carboxylate]: the IC50 was under 0.01 µM.
Regarding `CC(=O)NCC[C@@H]1[C@H]2CN(C(=O)OC(C)(C)C)C[C@@H]12` [Example 14, (1R,5S,6s)-tert-butyl 6-(2-azetamidoethyl)-3-azabicyclo[3.1.0]hexane-3-carboxylate], the IC50 is over 30 µM.
Still for that read-out and setting: then `CC(C)(C)OC(=O)N1C[C@@H]2[C@@H](CCNC(=O)N3Cc4ccccc4C3)[C@@H]2C1` [Example 15, (1R,5S,6s)-tert-butyl 6-(2-(isoindoline-2-carboxamido)ethyl)-3-azabicyclo[3.1.0]hexane-3-carboxylate], with 0.01 to 0.49 µM; and `CC(C)(C)OC(=O)N1C[C@@H]2[C@@H](CCNC(=O)N3CCc4sccc4C3)[C@@H]2C1` [Example 16, (1R,5S,6s)-tert-butyl 6-(2-(4,5,6,7-tetrahydrothioeno[3,2-c]pyridine-5-carboxamido)ethyl)-3-azabicyclo[3.1.0]hexane-3-carboxylate], with 0.01 to 0.49 µM; and `CC(C)(C)OC(=O)N1C[C@@H]2[C@@H](CCNC(=O)N3CC(c4cccnc4)C3)[C@@H]2C1` [Example 17, (1R,5S,6s)-tert-butyl 6-(2-(3-(pyridin-3-yl)azetidine-1-carboxamido)ethyl)-3-azabicyclo[3.1.0]hexane-3-carboxylate], with 0.01 to 0.49 µM.
Still for that read-out and setting: in the case of `CC(C)(C)OC(=O)N1C[C@@H]2[C@@H](CCNC(=NC#N)Nc3ccncc3)[C@@H]2C1` [Example 18, (1R,5S,6s)-tert-butyl 6-(2-((E)-2-cyano-3-(pyridin-4-yl)guanidino)ethyl)-3-azabicyclo[3.1.0]hexane-3-carboxylate] it was 0.01 to 0.49 µM.
Regarding `CC(C)(C)OC(=O)N1C[C@@H]2[C@@H](CCNC(=O)NCc3cccnc3)[C@@H]2C1` [Example 19, (1R,5S,6s)-tert-butyl 6-(2-(3-((pyridin-3-yl)methyl)ureido)ethyl)-3-azabicyclo[3.1.0]hexane-3-carboxylate], the IC50 was in the range of 0.01 to 0.49 µM.
On to `CC(C)(C)OC(=O)N1C[C@@H]2[C@@H](CCNC(=O)N3Cc4ccncc4C3)[C@@H]2C1` [Example 20, (1R,5S,6s)-tert-butyl 6-(2-(2,3-dihydro-1H-pyrrolo[3,4-c]pyridine-2-carboxamido)ethyl)-3-azabicyclo[3.1.0]hexane-3-carboxylate], for which the IC50 lay within 0.01 to 0.49 µM.
As for `CC1(OC(=O)N2C[C@@H]3[C@@H](CCNC(=O)/C=C/c4cccnc4)[C@@H]3C2)COC1` [Example 21, (1R,5S,6s)-3-methyloxetan-3-yl 6-(2-((E)-3-(pyridin-3-yl)acrylamido)ethyl)-3-azabicyclo[3.1.0]hexane-3-carboxylate], the IC50 was 0.01 to 0.49 µM.
Take `O=C(/C=C/c1cccnc1)NCC[C@@H]1[C@H]2CN(C(=O)c3ccccc3)C[C@@H]12` [Example 22, (E)-N-(2-((1R,5S,6s)-3-benzoyl-3-azabicyclo[3.1.0]hexan-6-yl)ethyl)-3-(pyridin-3-yl)acrylamide]: the IC50 was in the range of 0.01 to 0.49 µM.
With `O=C(/C=C/c1cccnc1)NCC[C@@H]1[C@H]2CN(S(=O)(=O)c3ccccc3)C[C@@H]12` [Example 23, (E)-N-(2-((1R,5S,6s)-3-(phenylsulfonyl)-3-azabicyclo[3.1.0]hexan-6-yl)ethyl)-3-(pyridin-3-yl)acrylamide], the IC50 was in the range of 0.01 to 0.49 µM.
On to `CC1(OC(=O)N2C[C@@H]3[C@@H](CCNC(=O)/C=C/c4ccc(N)nc4)[C@@H]3C2)COC1` [Example 24, (1R,5S,6s)-3-methyloxetan-3-yl 6-(2-((E)-3-(6-aminopyridin-3-yl)acrylamido)ethyl)-3-azabicyclo[3.1.0]hexane-3-carboxylate], for which the IC50 lay within 0.01 to 0.49 µM.
With `Nc1ccc(/C=C/C(=O)NCC[C@@H]2[C@H]3CN(C(=O)c4ccccc4)C[C@@H]23)cn1` [Example 25, (E)-3-(6-aminopyridin-3-yl)-N-(2-((1R,5S,6s)-3-benzoyl-3-azabicyclo[3.1.0]hexan-6-yl)ethyl)acrylamide], the IC50 fell in the range of 0.01 to 0.49 µM.
In the case of `CC1(OC(=O)N2C[C@@H]3[C@@H](CCNC(=O)c4cc5ccncc5s4)[C@@H]3C2)COC1` [Example 26, (1R,5S,6s)-3-methyloxetan-3-yl 6-(2-(thieno[2,3-c]pyridine-2-carboxamido)ethyl)-3-azabicyclo[3.1.0]hexane-3-carboxylate], the IC50 was 0.01 to 0.49 µM.
Still for that read-out and setting: in the case of `CC1(OC(=O)N2C[C@@H]3[C@@H](CCNC(=O)c4cc5ccncc5o4)[C@@H]3C2)COC1` [Example 27, (1R,5S,6s)-3-methyloxetan-3-yl 6-(2-(furo[2,3-c]pyridine-2-carboxamido)ethyl)-3-azabicyclo[3.1.0]hexane-3-carboxylate] it was 0.01 to 0.49 µM.
On the same count and under the same terms, in the case of `Nc1ccc(/C=C/C(=O)NCC[C@@H]2[C@H]3CN(C(=O)NCc4ccccc4)C[C@@H]23)cn1` [Example 28, (1R,5S,6s)-6-(2-((E)-3-(6-aminopyridin-3-yl)acrylamido)ethyl)-N-benzyl-3-azabicyclo[3.1.0]hexane-3-carboxamide] it was 0.01 to 0.49 µM; in that of `Nc1ccc(/C=C/C(=O)NCC[C@@H]2[C@H]3CN(C(=O)N4CCOCC4)C[C@@H]23)cn1` [Example 29, (E)-3-(6-aminopyridin-3-yl)-N-(2-((1R,5S,6s)-3-(morpholine-4-carbonyl)-3-azabicyclo[3.1.0]hexan-6-yl)ethyl)acrylamide], 0.01 to 0.49 µM; in that of `O=C(NCC[C@@H]1[C@H]2CN(C(=O)c3ccccc3)C[C@@H]12)c1cc2ccncc2o1` [Example 30, N-(2-((1R,5S,6s)-3-benzoyl-3-azabicyclo[3.1.0]hexan-6-yl)ethyl)furo[2,3-c]pyridine-2-carboxamide], 0.01 to 0.49 µM.
The same measure, in the same setting: in the case of `Nc1ccc(/C=C/C(=O)NCC[C@@H]2[C@H]3CN(C(=O)Nc4ccccc4)C[C@@H]23)cn1` [Example 31, (1R,5S,6s)-6-(2-((E)-3-(6-aminopyridin-3-yl)acrylamido)ethyl)-N-phenyl-3-azabicyclo[3.1.0]hexane-3-carboxamide] it was 0.01 to 0.49 µM; in that of `Nc1ccc(/C=C/C(=O)NCC[C@@H]2[C@H]3CN(C(=O)NC4CCOCC4)C[C@@H]23)cn1` [Example 32, (1R,5S,6s)-6-(2-((E)-3-(6-aminopyridin-3-yl)acrylamido)ethyl)-N-(tetrahydro-2H-pyran-4-yl)-3-azabicyclo[3.1.0]hexane-3-carboxamide], 0.01 to 0.49 µM.

The test is the same for the next values; noted with them: [HDB]; read-out: NAMPT IC50 (μM) [HDB].
With `Cc1noc2ncc(/C=C/C(=O)NCC[C@@H]3[C@H]4CN(C(=O)OC(C)(C)C)C[C@@H]34)cc12` [Example 9, tert-butyl (1R,5S,6s)-6-(2-((E)-3-(3-methylisoxazolo[5,4-b]pyridin-5-yl)acrylamido)ethyl)-3-azabicyclo[3.1.0]hexane-3-carboxylate], the IC50 was 0.01 to 0.49 µM.
As for `CC(C)(C)OC(=O)N1C[C@@H]2[C@@H](CCNC(=O)c3cc4cc(N)ncc4s3)[C@@H]2C1` [Example 13, (1R,5S,6s)-tert-butyl 6-(2-(5-aminothieno[2,3-c]pyridine-2-carboxamido)ethyl)-3-azabicyclo[3.1.0]hexane-3-carboxylate], the IC50 lay in the range of 0.01 to 0.49 µM.
Regarding `CC(C)(C)OC(=O)N1C[C@@H]2[C@@H](CCNC(=O)N3CC(c4cccnc4)C3)[C@@H]2C1` [Example 17, (1R,5S,6s)-tert-butyl 6-(2-(3-(pyridin-3-yl)azetidine-1-carboxamido)ethyl)-3-azabicyclo[3.1.0]hexane-3-carboxylate], the half-inhibitory concentration (IC50) was under 0.01 µM.
In the case of `O=C(/C=C/c1cccnc1)NCC[C@@H]1[C@H]2CN(S(=O)(=O)c3ccccc3)C[C@@H]12` [Example 23, (E)-N-(2-((1R,5S,6s)-3-(phenylsulfonyl)-3-azabicyclo[3.1.0]hexan-6-yl)ethyl)-3-(pyridin-3-yl)acrylamide], the IC50 was 0.01 to 0.49 µM.
Regarding `Nc1ccc(/C=C/C(=O)NCC[C@@H]2[C@H]3CN(C(=O)c4ccccc4)C[C@@H]23)cn1` [Example 25, (E)-3-(6-aminopyridin-3-yl)-N-(2-((1R,5S,6s)-3-benzoyl-3-azabicyclo[3.1.0]hexan-6-yl)ethyl)acrylamide], the IC50 was in the range of 0.01 to 0.49 µM.
Still for that read-out and setting: then `O=C(NCC[C@@H]1[C@H]2CN(C(=O)c3ccccc3)C[C@@H]12)c1cc2ccncc2o1` [Example 30, N-(2-((1R,5S,6s)-3-benzoyl-3-azabicyclo[3.1.0]hexan-6-yl)ethyl)furo[2,3-c]pyridine-2-carboxamide], with 0.01 to 0.49 µM.
